Values of other authors as cited in patent publication EP4640076A1, “ORAL PRODUCT WITH FLAVOR EMULSION” (Nicoventures Trading Limited, priority 2024, dated 2025).
Where two headings read alike, the source gives them in different places.

Assays:
[1] = at 25°C; heptanal

logP (resveratrol) | logP (heptanal) | vapor pressure [1] | Compound
3.1 |  |  | Oc1ccc(/C=C/c2cc(O)cc(O)c2)cc1 [Resveratrol, 3,5,4'-trihydroxy-trans-stilbene]
 | 2.44 | 3.85 mm Hg | CCCCCCC=O [heptanal]
